Measurements taken from patent EP4806435A1, “DIHYDROCHROMENE-DERIVATIVE-CONTAINING THERAPEUTIC AGENT FOR CANCER” (Sumitomo Pharma Co., Ltd., priority 2023, dated 2025).

Test system: patients with recurrent malignant glioma classified as WHO grade III or IV
Assay: Phase 1 dose-escalation clinical trial: safety (TEAEs, DLTs, MTD);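 note: dosing continued until unacceptable toxicity, consent withdrawal, loss to follow-up or investigator/sponsor decision, with cohorts of 1-6 patients per dose level and MTD estimated by BLRM from cumulative DLT data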
[1] = 180 mg QD (N=6), cutoff April 21, 2024
[2] = 240 mg (N=5), cutoff April 21, 2023
[3] = 240 mg QD (N=6), cutoff April 21, 2024
[4] = 360 mg QD (N=6), cutoff April 21, 2024
[5] = 480 mg daily (240 mg BID) (N=6), cutoff April 21, 2024
[6] = 480 mg daily [240 mg BID] group, cutoff April 21, 2024
[7] = N=23 (n=2), cutoff April 21, 2023
[8] = N=39 (n=2), cutoff April 21, 2024
[9] = N=39 (n=3), cutoff April 21, 2024
[10] = Total (N=23), cutoff April 21, 2023
[11] = Total (N=39), cutoff April 21, 2024

Procedure: Administration to each subject was continued until unacceptable toxicity occurred, consent was withdrawn, the subject was lost to follow-up, or discontinuation was determined by the investigator and/or the sponsor.
The present study consists of two parts: a dose-escalation part (Part 1) and a dose-expansion part (Part 2).
Each dose level was evaluated in cohorts of 1-6 patients. In all cohorts, administration of the investigational drug to the second and subsequent patients was permitted after completion of all safety assessments on Day 8 of Cycle 1 in the first patient. […] At dose level 2 in the dose-escalation part, at least three patients were required to be evaluated before escalation to a higher dose level. After completion of each cohort, the probability of observing a DLT at each dose level in the present study was updated using the BLRM based on cumulative data from the preceding cohorts, and the MTD was estimated.

## CC1(C)Oc2cc(Cl)ccc2[C@@H]2OCC3(CCN(CCn4ccnc4)CC3)C[C@H]21 [Compound 1, (4'aR,10'bR)-8'-chloro-1-[2-(1H-imidazol-1-yl)ethyl]-5',5'-dimethyl-4'a,10'b-dihydro-2'H,4'H,5'H-spiro[piperidine-4,3'-pyrano[3,2-c][1]benzopyran] diphosphate]
[1]
  TEAE: alopecia: 1 (16.7) n (%)
  TEAE: constipation: 2 (33.3) n (%)
  TEAE: decreased appetite: 1 (16.7) n (%)
  TEAE: decreased lymphocyte count: 1 (16.7) n (%)
  TEAE: decreased neutrophil count: 0 n (%)
  TEAE: decreased platelet count: 1 (16.7) n (%)
  TEAE: diarrhea: 1 (16.7) n (%)
  TEAE: dry skin: 1 (16.7) n (%)
  TEAE: fall: 2 (33.3) n (%)
  TEAE: fatigue: 0 n (%)
  TEAE: headache: 0 n (%)
  TEAE: hypertrigly-ceridaemia: 1 (16.7) n (%)
  TEAE: hyponatremia: 0 n (%)
  TEAE: increase in blood cholesterol: 0 n (%)
  TEAE: increased alanine aminotransferase: 4 (66.7) n (%)
  TEAE: increased aspartate aminotransferase: 2 (33.3) n (%)
  TEAE: maculopapular rash: 0 n (%)
  TEAE: nausea: 2 (33.3) n (%)
  TEAE: seizure: 2 (33.3) n (%)
  TEAE: vomiting: 2 (33.3) n (%)
[2]
  Number of patients with any TEAE: 5 (100) n (%)
  TEAE: constipation: 3 (60.0) n (%)
  TEAE: decreased appetite: 1 (20.0) n (%)
  TEAE: decreased lymphocyte count: 2 (40.0) n (%)
  TEAE: decreased neutrophil count: 0 n (%)
  TEAE: decreased platelet count: 0 n (%)
  TEAE: decreased white blood cell count: 0 n (%)
  TEAE: dry skin: 3 (60.0) n (%)
  TEAE: fall: 0 n (%)
  TEAE: headache: 3 (60.0) n (%)
  TEAE: hypertrigly-ceridaemia: 1 (20.0) n (%)
  TEAE: hyponatremia: 0 n (%)
  TEAE: increased alanine aminotransferase: 4 (80.0) n (%)
  TEAE: increased aspartate aminotransferase: 2 (40.0) n (%)
  TEAE: nausea: 3 (60.0) n (%)
  TEAE: seizure: 1 (20.0) n (%)
  TEAE: vomiting: 2 (40.0) n (%)
240 mg BID, dose as the present compound
  maximum tolerated dose (MTD): 480 mg daily
[3]
  Number of Patients with Any TEAE: 6 (100) n (%)
  TEAE: Confusional state: 1 (16.7) n (%)
  TEAE: Gait disturbance: 0 n (%)
  TEAE: Gastrointestinal disorder: 0 n (%)
  TEAE: Hiccups: 0 n (%)
  TEAE: Tremor: 0 n (%)
  TEAE: alopecia: 1 (16.7) n (%)
  TEAE: constipation: 3 (50.0) n (%)
  TEAE: decreased appetite: 2 (33.3) n (%)
  TEAE: decreased lymphocyte count: 2 (33.3) n (%)
  TEAE: decreased neutrophil count: 0 n (%)
  TEAE: decreased platelet count: 0 n (%)
  TEAE: diarrhea: 1 (16.7) n (%)
  TEAE: dry skin: 4 (66.7) n (%)
  TEAE: fall: 0 n (%)
  TEAE: fatigue: 1 (16.7) n (%)
  TEAE: headache: 4 (66.7) n (%)
  TEAE: hypertrigly-ceridaemia: 1 (16.7) n (%)
  TEAE: hyponatremia: 0 n (%)
  TEAE: increase in blood cholesterol: 1 (16.7) n (%)
  TEAE: increased alanine aminotransferase: 6 (100) n (%)
  TEAE: increased aspartate aminotransferase: 2 (33.3) n (%)
  TEAE: maculopapular rash: 0 n (%)
  TEAE: nausea: 4 (66.7) n (%)
  TEAE: seizure: 1 (16.7) n (%)
  TEAE: vomiting: 2 (33.3) n (%)
240 mg QD group, cutoff April 21, 2024
  serious TEAE: neoplasm progression: one
240 mg group, cutoff April 21, 2023
  serious TEAE: neoplasm progression: one
[4]
  Number of Patients with Any TEAE: 6 (100) n (%)
  TEAE: Confusional state: 0 n (%)
  TEAE: Gait disturbance: 1 (16.7) n (%)
  TEAE: Gastrointestinal disorder: 1 (16.7) n (%)
  TEAE: Hiccups: 0 n (%)
  TEAE: Tremor: 2 (33.3) n (%)
  TEAE: alopecia: 2 (33.3) n (%)
  TEAE: constipation: 2 (33.3) n (%)
  TEAE: decreased appetite: 1 (16.7) n (%)
  TEAE: decreased lymphocyte count: 0 n (%)
  TEAE: decreased neutrophil count: 1 (16.7) n (%)
  TEAE: decreased platelet count: 1 (16.7) n (%)
  TEAE: diarrhea: 2 (33.3) n (%)
  TEAE: dry skin: 0 n (%)
  TEAE: fall: 2 (33.3) n (%)
  TEAE: fatigue: 3 (50.0) n (%)
  TEAE: headache: 1 (16.7) n (%)
  TEAE: hypertrigly-ceridaemia: 1 (16.7) n (%)
  TEAE: hyponatremia: 1 (16.7) n (%)
  TEAE: increase in blood cholesterol: 2 (33.3) n (%)
  TEAE: increased alanine aminotransferase: 4 (66.7) n (%)
  TEAE: increased aspartate aminotransferase: 3 (50.0) n (%)
  TEAE: maculopapular rash: 1 (16.7) n (%)
  TEAE: nausea: 6 (100) n (%)
  TEAE: seizure: 0 n (%)
  TEAE: vomiting: 4 (66.7) n (%)
360 mg QD, cutoff April 21, 2024
  DLT (Grade 3 maculopapular rash; recovered to Grade 1 with treatment interruption): one
360 mg cohort, as of September 2023
  DLT: Grade 3 maculo-papular rash (recovered to grade 1 with dose interruption): one and One
[5]
  Number of Patients with Any TEAE: 6 (100) n (%)
  TEAE: Confusional state: 2 (33.3) n (%)
  TEAE: Gait disturbance: 2 (33.3) n (%)
  TEAE: Gastrointestinal disorder: 1 (16.7) n (%)
  TEAE: Hiccups: 2 (33.3) n (%)
  TEAE: Tremor: 0 n (%)
  TEAE: alopecia: 1 (16.7) n (%)
  TEAE: constipation: 1 (16.7) n (%)
  TEAE: decreased appetite: 1 (16.7) n (%)
  TEAE: decreased lymphocyte count: 1 (16.7) n (%)
  TEAE: decreased neutrophil count: 0 n (%)
  TEAE: decreased platelet count: 0 n (%)
  TEAE: diarrhea: 0 n (%)
  TEAE: dry skin: 3 (50.0) n (%)
  TEAE: fall: 3 (50.0) n (%)
  TEAE: fatigue: 2 (33.3) n (%)
  TEAE: headache: 0 n (%)
  TEAE: hypertrigly-ceridaemia: 0 n (%)
  TEAE: hyponatremia: 1 (16.7) n (%)
  TEAE: increase in blood cholesterol: 1 (16.7) n (%)
  TEAE: increased alanine aminotransferase: 5 (83.3) n (%)
  TEAE: increased aspartate aminotransferase: 2 (33.3) n (%)
  TEAE: maculopapular rash: 3 (50.0) n (%)
  TEAE: nausea: 2 (33.3) n (%)
  TEAE: seizure: 1 (16.7) n (%)
  TEAE: vomiting: 3 (50.0) n (%)
480 mg daily (240 mg BID), cutoff April 21, 2024
  patients with DLTs (Grade 3 maculopapular rash; Grade 2 nausea and vomiting): two
[6]
  serious TEAE: confusional state: one
  serious TEAE: fatigue: one
N=23 (6 patients), cutoff April 21, 2023
  patients with serious TEAEs: 26.1%
N=23 (13 patients), cutoff April 21, 2023
  patients with Grade ≥3 TEAEs: 56.5%
N=23 (16 patients), cutoff April 21, 2023
  patients with TEAEs considered to be related to the study drug: 69.6%
[7]
  Grade ≥3 TEAE: aphasia: 8.7%
  Grade ≥3 TEAE: decreased lymphocyte count: 8.7%
  Grade ≥3 TEAE: decreased white blood cell count: 8.7%
  Grade ≥3 TEAE: headache: 8.7%
N=23 (n=3), cutoff April 21, 2023
  Grade ≥3 TEAE: decreased neutrophil count: 13.0%
N=23 (n=4), cutoff April 21, 2023
  Grade ≥3 TEAE: seizure: 17.4%
N=23, 40 mg and 240 mg groups, cutoff April 21, 2023
  patients who died during the study due to TEAEs (assessed as not related): two
N=23, cutoff April 21, 2023
  Grade ≥3 TEAE considered related to Compound 1 (dry skin): one
  relatedness of serious TEAEs to Compound 1: None of these serious TEAEs were considered to be related to Compound 1
N=39 (9 patients), cutoff April 21, 2024
  patients with serious TEAEs: 23.1%
N=39 (23 patients), cutoff April 21, 2024
  patients with Grade ≥3 TEAEs: 59.0%
N=39 (30 patients), cutoff April 21, 2024
  patients with TEAEs considered to be related to the study drug: 76.9%
N=39 (n=1), cutoff April 21, 2024
  Grade ≥3 TEAE considered related to Compound 1: fatigue: 2.6%
[8]
  Grade ≥3 TEAE considered related to Compound 1: dry skin: 5.1%
  Grade ≥3 TEAE considered related to Compound 1: maculopapular rash: 5.1%
  Grade ≥3 TEAE: decreased white blood cell count: 5.1%
  Grade ≥3 TEAE: dry skin: 5.1%
  Grade ≥3 TEAE: increased alanine aminotransferase: 5.1%
  Grade ≥3 TEAE: maculopapular rash: 5.1%
[9]
  Grade ≥3 TEAE: aphasia: 7.7%
  Grade ≥3 TEAE: decreased lymphocyte count: 7.7%
  Grade ≥3 TEAE: decreased neutrophil count: 7.7%
  Grade ≥3 TEAE: headache: 7.7%
N=39 (n=4), cutoff April 21, 2024
  Grade ≥3 TEAE: fatigue: 10.3%
N=39 (n=5), cutoff April 21, 2024
  Grade ≥3 TEAE: seizure: 12.8%
N=39, 40 mg QD and 240 mg QD groups, cutoff April 21, 2024
  patients who died during the study due to TEAEs: Two
N=39, cutoff April 21, 2024
  serious TEAEs considered to be related to Compound 1: nine and None of these serious TEAEs were considered to be related to Compound 1
[10]
  Number of patients with any TEAE: 23 (100) n (%)
  TEAE: constipation: 7 (30.4) n (%)
  TEAE: decreased appetite: 3 (13.0) n (%)
  TEAE: decreased lymphocyte count: 5 (21.7) n (%)
  TEAE: decreased neutrophil count: 6 (26.1) n (%)
  TEAE: decreased platelet count: 4 (17.4) n (%)
  TEAE: decreased white blood cell count: 3 (13.0) n (%)
  TEAE: dry skin: 5 (21.7) n (%)
  TEAE: fall: 3 (13.0) n (%)
  TEAE: headache: 7 (30.4) n (%)
  TEAE: hypertrigly-ceridaemia: 4 (17.4) n (%)
  TEAE: hyponatremia: 3 (13.0) n (%)
  TEAE: increased alanine aminotransferase: 12 (52.2) n (%)
  TEAE: increased aspartate aminotransferase: 6 (26.1) n (%)
  TEAE: nausea: 11 (47.8) n (%)
  TEAE: seizure: 5 (21.7) n (%)
  TEAE: vomiting: 6 (26.1) n (%)
[11]
  Number of Patients with Any TEAE: 39 (100) n (%)
  TEAE: Confusional state: 4 (10.3) n (%)
  TEAE: Gait disturbance: 4 (10.3) n (%)
  TEAE: Gastrointestinal disorder: 4 (10.3) n (%)
  TEAE: Hiccups: 4 (10.3) n (%)
  TEAE: Tremor: 4 (10.3) n (%)
  TEAE: alopecia: 6 (15.4) n (%)
  TEAE: constipation: 11 (28.2) n (%)
  TEAE: decreased appetite: 6 (15.4) n (%)
  TEAE: decreased lymphocyte count: 6 (15.4) n (%)
  TEAE: decreased neutrophil count: 6 (15.4) n (%)
  TEAE: decreased platelet count: 5 (12.8) n (%)
  TEAE: diarrhea: 5 (12.8) n (%)
  TEAE: dry skin: 10 (25.6) n (%)
  TEAE: fall: 9 (23.1) n (%)
  TEAE: fatigue: 7 (17.9) n (%)
  TEAE: headache: 9 (23.1) n (%)
  TEAE: hypertrigly-ceridaemia: 5 (12.8) n (%)
  TEAE: hyponatremia: 5 (12.8) n (%)
  TEAE: increase in blood cholesterol: 4 (10.3) n (%)
  TEAE: increased alanine aminotransferase: 25 (64.1) n (%)
  TEAE: increased aspartate aminotransferase: 13 (33.3) n (%)
  TEAE: maculopapular rash: 4 (10.3) n (%)
  TEAE: nausea: 21 (53.8) n (%)
  TEAE: seizure: 7 (17.9) n (%)
  TEAE: vomiting: 14 (35.9) n (%)
As of September 2023, n=33
  study drug related Grade 3 AEs (dry skin, and rash): 2
  study drug-related SAEs: no study drug-related SAEs reported
From 20 mg QD to 240 mg QD, cutoff April 21, 2024
  dose-limiting toxicities (DLTs): No dose-limiting toxicities (DLTs) were observed
From 20 mg up to 240 mg, as of September 2023
  dose limiting toxicity: No dose limiting toxicity reported
One 20 mg QD, one 120 mg QD, two 180 mg QD, cutoff April 21, 2024
  serious TEAE: seizure: four
